This is an account of results in ChEMBL document CHEMBL1201862, “PubChem BioAssay data set” (2004).

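Exposure lasted 48 hours, with cells grown in 96-well plates and compounds tested at five concentrations. GI50: concentration for 50% inhibition of growth.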 The source made the active and inactive calls. No stated cut-off is given here; in the data, active = GI50 up to about 1.1 µM and inactive = higher.

Test systems include EKVX; SNB-75; TK-10; MCF7; SK-OV-3; HCT-15; SNB-19; SF-539; HOP-92; BT-549; 786-0; KM12; CCRF-CEM; OVCAR-5; HOP-62; PC-3; HT-29; NCI-H522; OVCAR-4; MDA-MB-435.
What all share (test): DTP human tumour cell line panel, 48 h

`COc1ccc2cc(C(=O)NCCCNC(=O)c3ccc4cc(OC)ccc4c3)ccc2c1`: the GI50 is 49.8 µM (inactive) with EKVX; 17.8 µM (inactive) in the experiment on SNB-75; 45.4 µM (inactive) in the experiment on TK-10; > 100 µM (inactive) in the experiment on MCF7; 31.5 µM (inactive) in the experiment with SK-OV-3; over 100 µM in the experiment with HCT-15. For the same compound, the GI50 is 17.2 µM (inactive) in the experiment on SNB-19; 3.94 µM (inactive) in the experiment on SF-539; 14.7 µM (inactive) in the experiment on HOP-92; > 64.7 µM (inactive) in the experiment with BT-549; 19.6 µM (inactive) in the experiment on 786-0; > 100 µM (inactive) in the experiment on KM12. The GI50 was > 100 µM (inactive) in the experiment with CCRF-CEM; > 100 µM (inactive) in the experiment with OVCAR-5; 14.7 µM (inactive) with HOP-62; > 100 µM (inactive) in the experiment on PC-3; > 100 µM (inactive) with HT-29; > 100 µM (inactive) with NCI-H522. For the same compound, the GI50 is 61 µM (inactive) in the experiment on OVCAR-4 and > 100 µM (inactive) in the experiment with MDA-MB-435.
`O=C(NN1C(=O)C=CC1=O)c1ccccc1Nc1ccccc1C(=O)NN1C(=O)C=CC1=O`: the GI50 was > 100 µM (inactive) in the experiment with EKVX; > 100 µM (inactive) with SNB-75; > 100 µM (inactive) in the experiment on TK-10; > 100 µM (inactive) in the experiment on MCF7; over 100 µM with HCT-15; > 100 µM (inactive) in the experiment with SNB-19. For the same compound, the GI50 in the experiment with SF-539, in the experiment with HOP-92, in the experiment on BT-549, in the experiment with 786-0, in the experiment with KM12 and in the experiment on CCRF-CEM was > 100 µM (inactive) in each case. The GI50 with OVCAR-5, in the experiment on HOP-62, in the experiment on PC-3, in the experiment on HT-29, in the experiment with NCI-H522 and with OVCAR-4 was > 100 µM (inactive) throughout. Moreover, the GI50 with MDA-MB-435 was > 100 µM (inactive).
As for `CCOC(=O)CC1C(O)C(=O)N(C)C1c1ccccc1` (configuration not stated), the GI50 was > 100 µM (inactive) in the experiment with EKVX; > 100 µM (inactive) with SNB-75; > 100 µM (inactive) with TK-10; > 100 µM (inactive) in the experiment with MCF7; > 100 µM (inactive) in the experiment with SK-OV-3; over 100 µM in the experiment on HCT-15. Besides, the GI50 in the experiment on SNB-19, in the experiment with SF-539, in the experiment on HOP-92, in the experiment with BT-549, in the experiment on 786-0 and in the experiment on KM12 was > 100 µM (inactive) each time. Moreover, the GI50 in the experiment on CCRF-CEM, in the experiment with OVCAR-5, in the experiment with HOP-62, in the experiment on PC-3, in the experiment with HT-29 and with NCI-H522 was > 100 µM (inactive) each time. Besides, the GI50 in the experiment with OVCAR-4 and in the experiment on MDA-MB-435 was > 100 µM (inactive) each time.
Take `CC1=C(C(=O)N(C)c2ccc(Cl)c(C(=O)OC(C)C)c2)SCCO1`: the GI50 is 41.8 µM (inactive) in the experiment with EKVX; 18.7 µM (inactive) in the experiment on SNB-75; 84.7 µM (inactive) in the experiment on TK-10; 66.5 µM (inactive) in the experiment with MCF7; > 100 µM (inactive) in the experiment with SK-OV-3; 74 µM in the experiment with HCT-15. Besides, the GI50 in the experiment on SNB-19 was 74.6 µM (inactive); with SF-539, > 100 µM (inactive); with HOP-92, > 100 µM (inactive); in the experiment on BT-549, 40.9 µM (inactive); in the experiment on 786-0, > 100 µM (inactive); with KM12, 55 µM (inactive). Further, the GI50 was > 100 µM (inactive) in the experiment on CCRF-CEM; > 100 µM (inactive) in the experiment on OVCAR-5; 38.5 µM (inactive) with PC-3; 46.7 µM (inactive) in the experiment with HT-29; 44.9 µM (inactive) in the experiment on NCI-H522; 42.4 µM (inactive) in the experiment on OVCAR-4. The GI50 in the experiment on MDA-MB-435 is 48.6 µM (inactive).
In the case of `COc1ccc(CC2c3cc4c(cc3CCN2C)OCO4)c(C=O)c1OC` (configuration not stated), the GI50 in the experiment with EKVX was > 100 µM (inactive); in the experiment with SNB-75, 40.8 µM (inactive); in the experiment on TK-10, > 100 µM (inactive); in the experiment with MCF7 it was > 100 µM (inactive); in the experiment with SK-OV-3, > 100 µM (inactive); with HCT-15, over 100 µM. In addition, the GI50 in the experiment on SNB-19, with SF-539, in the experiment with HOP-92, in the experiment on BT-549, in the experiment with 786-0 and with KM12 was > 100 µM (inactive) in each case. Further, the GI50 in the experiment on CCRF-CEM, in the experiment with OVCAR-5, in the experiment on PC-3, with HT-29, in the experiment with NCI-H522 and with OVCAR-4 was > 100 µM (inactive) throughout. In the experiment with MDA-MB-435, the GI50 was > 100 µM (inactive).
For the compound `CC(=O)OCC1OC(N2C(S)=C(C#N)C(c3ccco3)C(C(C)=O)=C2c2ccccc2)C(OC(C)=O)C(OC(C)=O)C1OC(C)=O` (configuration not stated), the GI50 is 8.49 µM (inactive) with SNB-75; > 100 µM (inactive) in the experiment with TK-10; > 100 µM (inactive) in the experiment on MCF7; over 100 µM in the experiment with HCT-15; 39.5 µM (inactive) in the experiment on SNB-19; 78.5 µM (inactive) with SF-539. The GI50 in the experiment on HOP-92 is 32.9 µM (inactive); in the experiment on BT-549, > 100 µM (inactive); in the experiment with 786-0, 29.3 µM (inactive); in the experiment with KM12, > 100 µM (inactive); with CCRF-CEM, 28.3 µM (inactive); with OVCAR-5, 62.4 µM (inactive). Also, the GI50 in the experiment on HOP-62 is 16.9 µM (inactive); with PC-3, 24.9 µM (inactive); in the experiment on HT-29 it was > 100 µM (inactive); with NCI-H522 it was 32.1 µM (inactive); with OVCAR-4 it was 13.4 µM (inactive); with MDA-MB-435, > 100 µM (inactive).
With `COc1ccc2[nH]c3c(c2c1)CC(=O)N1CCCC(CC3O)C1` (configuration not stated), the GI50 in the experiment on SNB-75 was > 100 µM (inactive); with TK-10 it was > 100 µM (inactive); with MCF7, > 100 µM (inactive); in the experiment on SK-OV-3, > 100 µM (inactive); in the experiment with HCT-15, over 100 µM; in the experiment with SNB-19, > 100 µM (inactive). In addition, the GI50 with SF-539, in the experiment with HOP-92, with BT-549, in the experiment on 786-0, in the experiment on KM12 and in the experiment on PC-3 was > 100 µM (inactive) each time. Moreover, the GI50 in the experiment with HT-29, with NCI-H522, in the experiment with OVCAR-4 and in the experiment on MDA-MB-435 was > 100 µM (inactive) throughout.
Take `CC(=O)Nc1cc(CN2CCCCC2)c(O)c2ncccc12`: the GI50 was 30.4 µM (inactive) in the experiment with EKVX; 29 µM (inactive) in the experiment with TK-10; 24.7 µM (inactive) in the experiment with MCF7; 36.5 µM (inactive) with SK-OV-3; 6.01 µM in the experiment with HCT-15; 39.7 µM (inactive) in the experiment on SNB-19. Moreover, the GI50 in the experiment on SF-539 is 58.5 µM (inactive); with HOP-92 it was 49.5 µM (inactive); in the experiment with BT-549, 77.4 µM (inactive); in the experiment on 786-0 it was 8.04 µM (inactive); in the experiment with KM12, 23.9 µM (inactive); with CCRF-CEM it was 41.5 µM (inactive). The GI50 in the experiment on OVCAR-5 is 34.8 µM (inactive); in the experiment with HOP-62, 27.2 µM (inactive); in the experiment with PC-3, 21.6 µM (inactive); in the experiment on HT-29 it was 44.5 µM (inactive); with NCI-H522, 37.3 µM (inactive); in the experiment on OVCAR-4, 35.2 µM (inactive). The GI50 with MDA-MB-435 is 31.4 µM (inactive).
Consider `CCOC(=O)n1cncc1CC(NC(=O)Cc1c(C(=O)C=C(C)C)[nH]c2ccccc12)C(=O)OC` (configuration not stated), for which the GI50 was 15.5 µM (inactive) in the experiment with EKVX; 22.9 µM (inactive) in the experiment on SNB-75; 18.2 µM (inactive) in the experiment on TK-10; 24.7 µM (inactive) in the experiment on MCF7; 17.5 µM (inactive) in the experiment with SK-OV-3; 19.1 µM in the experiment with HCT-15. For the same compound, the GI50 in the experiment on SNB-19 is 14.5 µM (inactive); in the experiment with SF-539, 19.5 µM (inactive); in the experiment with HOP-92, 12 µM (inactive); with BT-549 it was 20 µM (inactive); in the experiment on 786-0, 21.5 µM (inactive); with KM12 it was 19.3 µM (inactive). Also, the GI50 was 0.708 µM (active) in the experiment on CCRF-CEM; 15.5 µM (inactive) in the experiment with OVCAR-5; 17 µM (inactive) in the experiment with PC-3; 22.3 µM (inactive) in the experiment on HT-29; 3.56 µM (inactive) in the experiment on NCI-H522; 18.5 µM (inactive) in the experiment on OVCAR-4. For the same compound, the GI50 in the experiment on MDA-MB-435 was 18.2 µM (inactive).
Regarding `Clc1cccc(Cl)c1C(Nc1nncs1)Nc1nncs1`, the GI50 was 43.9 µM (inactive) with EKVX; > 100 µM (inactive) with SNB-75; 23.9 µM (inactive) in the experiment on TK-10; 36 µM (inactive) in the experiment on MCF7; 32 µM (inactive) with SK-OV-3; 13 µM with HCT-15. For the same compound, the GI50 with SNB-19 was 52 µM (inactive); in the experiment with SF-539, 23.9 µM (inactive); in the experiment with HOP-92, > 100 µM (inactive); in the experiment with BT-549 it was 73.3 µM (inactive); in the experiment with 786-0, 28.7 µM (inactive); in the experiment on KM12 it was 27.7 µM (inactive). Besides, the GI50 with OVCAR-5 is 36.5 µM (inactive); in the experiment on HOP-62, 50.4 µM (inactive); in the experiment with PC-3, 9.35 µM (inactive); in the experiment with HT-29 it was 14.1 µM (inactive); in the experiment with NCI-H522, 22.3 µM (inactive); in the experiment on OVCAR-4, 59.4 µM (inactive). The GI50 in the experiment with MDA-MB-435 is 11.1 µM (inactive).
Regarding `O=[N+]([O-])c1ccc(-c2nc3ccccc3o2)cc1`, the GI50 with EKVX is > 100 µM (inactive); in the experiment with SNB-75 it was > 100 µM (inactive); with TK-10, > 100 µM (inactive); in the experiment on MCF7 it was > 100 µM (inactive); with SK-OV-3 it was > 100 µM (inactive); with HCT-15, over 100 µM. The GI50 with SNB-19, with SF-539, in the experiment with HOP-92, in the experiment with BT-549, with 786-0 and in the experiment on KM12 was > 100 µM (inactive) throughout. The GI50 is 40.4 µM (inactive) in the experiment with CCRF-CEM; > 100 µM (inactive) in the experiment with OVCAR-5; 69 µM (inactive) in the experiment on HOP-62; > 100 µM (inactive) with PC-3; > 100 µM (inactive) with NCI-H522; > 100 µM (inactive) with OVCAR-4. For the same compound, the GI50 in the experiment on MDA-MB-435 is > 100 µM (inactive).
